{"source": "patent US11826333B2", "about": "“Bactericidal debridement compositions for surgical site infections and chronic wound healing” (DePuy Synthes Products, Inc., priority 2020, dated 2023)", "key": {"[1]": {"tested_on": "biofilms", "conditions": "literature, Davies & Marques 2009; cited from earlier work"}, "[2]": {"tested_on": "MRSA", "conditions": "literature, Jennings et al. 2012; cited from earlier work"}, "[3]": {"tested_on": "mature biofilms of S. aureus (ATCC 25923)", "experiment": "CDA dispersant effect on mature biofilms", "type": "cell-based", "conditions": "CDA ~0.05 ppm, 310 nM", "protocol": "(§1) In the following examples, unless otherwise noted, testing was conducted on mature biofilms of S. aureus (ATCC 25923) that were grown for 48 hours. An exemplary preparation of the biofilm is as follows: • Prepare an overnight bacterial inoculum of S. aureus at a concentration of 10^9 CFU/mL in 20 mL in commercial Tryptic Soy Broth (TSB) by incubating at 37° C. shaker at 250 rpm; • Take an OD600 reading of a diluted stock of overnight culture to determine stock concentration with the absorbance method; • Adjust the concentration of bacteria to 10^5 CFU/mL using 0.3% (w/v) TSB forcibly aspirating up and down to break up clumps of colonies with a serological pipette from the stock concentration; • Plate the following dilutions in triplicates on TSA-L plates to determine the initial stock concentration of cells: 10^2 CFU/mL; • Add 7 mL of inoculum into each 15 ml tube containing K-wire using a serological pipette, making sure to again forcibly aspirate up and down prior to addition; • Place the tubes on the revolver at 30° C.; • After 8 hours, unscrew the caps and transfer the caps with sutures to a new tube with 7 mL of 0.3% TSB and incubate in the shaker-incubator for an additional 44 hours to grow the biofilm at 40 RPM growing; • During this time, change the media 2 times per day by unscrewing the cap and transferring to a new tube with 7 mL TSB."}, "[4]": {"tested_on": "S. aureus (ATCC 25923) biofilms grown for 48 hrs", "experiment": "CDA dose response on mature biofilms (Example 1)", "type": "cell-based", "conditions": "CDA at 200 ppm or greater in 5% DMSO; 24 hours exposure; 48 h biofilm", "protocol": "as §1, with “TSB. […]” for “TSB.”"}, "[5]": {"tested_on": "planktonic S. aureus", "experiment": "CDA effect on planktonic bacteria (visual MIC test and follow-up plating)", "type": "cell-based", "text": "As an additional test, several different CDA concentrations (800 ppm, 400 ppm, 200 ppm, 100 ppm, 50 ppm, 25 ppm, 12.5 ppm, and 6.25 ppm) were placed in vials including planktonic S. aureus. The vials can be seen in FIG. 3A. Two controls are on the right and unlabeled (bacteria/no fatty acid and no fatty acid/no bacteria, respectively). […] This test was qualitative and was based on whether there was observable bacteria in the test vials. In FIG. 3A, it can be seen that only the test vial containing 800 ppm CDA contains clear fluid, while the other tubes are all cloudy indicating active presence of bacteria.\nThus, even at an MIC of 800 ppm, CDA was not shown to be bactericidal but rather bacteriostatic with respect to planktonic bacteria."}, "[6]": {"tested_on": "S. aureus (ATC 25923) biofilm grown for 48 hours on K-wires", "experiment": "1 hour CDA/cefazolin exposure of debrided or full biofilm on K-wires (Example 3)", "type": "cell-based", "conditions": "debrided biofilm; for Avg. Log CFU, K-Wire Testing / Avg. Log CFU, Well Testing: 21° C.; for Reduction (log CFU), K-Wire Testing / Reduction (log CFU), Well Testing: vs debrided biofilm control", "protocol": "The goal of this study was to determine whether the combination of CDA and Cefazolin can act quickly on a debrided contaminated wound site with an adjuvant killing effect of CDA and a therapeutic drug concentration. The biofilm was grown at 30° C. and the same 0.3% (w/v) media used in previous studies was used in this study. The biofilm was grown for 48 hours, then underwent a mechanical “debridement” process. This debridement was done to simulate the debridement of an infected wound site. After the physical removal of visual biofilm, the K-wires were exposed to 400 ppm CDA, 10 ppm cefazolin, or a combination of both, for one hour (in contrast to the previous studies where exposure was for 24 hrs). Separately, a test was conducted on an untreated biofilm (i.e., not debrided) using a higher concentration of CDA, approximately 800 ppm. This concentration of CDA was determined to be the MIC value for ATC 25923 planktonic cells as noted above in the previous example.\nThe contents of the wells and bacteria on the K-wires were diluted and plated to determine CFU/mL. Briefly, the K-wires were secured to tube caps and placed in tubes incubated with an initial inoculum concentration (10^5 CFU/mL) and grown for 24-48 hours. Media was changed roughly every 8 hours. After growth, the biofilms were exposed to a combination of CDA and cefazolin for 60 minutes.\nAfter exposure time was completed, both the well samples and the debrided K-wires were treated, and the remaining bacteria cells were plated and counted. For the media in the wells, samples were centrifuged for 10 minutes at 3000 rpm and the supernatant was removed. The cells were resuspended in 10 mL 1×PBS buffer. This washing step was repeated for a second time and the cells resuspended again in a final volume of 1.5 mL neutralizing buffer, diluted and plated on Tryptic Soy Agar with Lectin (TSA-L) agar plates. For the K-wires, the caps securing the K-wires in the tubes were removed and transferred to tubes with 10 mL 1×PBS and the tubes were inverted. The cap with the K-wires were transferred again to another tube with PBS and the step was repeated. After washing the K-wires 2×, they were transferred to tubes with neutralizing buffer and vortexed followed by ultra-sonication for 10 minutes. The cells were then diluted and plated on TAS-L agar plates.\nPrepare an overnight bacterial inoculum of S. aureus at a concentration of 10^9 CFU/mL in 20 mL in commercial TSB by incubating at 37° C. shaker at 250 rpm.\nAdjust the concentration of bacteria to 10^5 CFU/mL using 0.3% (w/v) TSB making sure to forcibly aspirate up and down to break up clumps of colonies with a serological pipette from the stock concentration.\nAdd 7 mL of inoculum into each 15 ml tube containing K-wire using a serological pipette, making sure to again forcibly aspirate up and down prior to addition.\nAfter 8 hours, unscrew the caps and transfer the caps with sutures to a new tube with 7 mL of 0.3% TSB and incubate in the shaker-incubator for an additional 44 hours to grow the biofilm at 40 RPM growing.\nDuring this time, change the media 2× per day by unscrewing the cap and transferring to a new tube with 7 mL TSB. After 48 hours of growth, proceed with debridement of the biofilm and exposure.\nTransfer the K-wires in new tubes containing 10 mL of 1×PBS, invert it two times and repeat the same step with one more PBS wash by inverting 2 times for a total of 2 washes.\nTransfer caps with debrided biofilm to a new tube containing 10 mL of 0.1% TSB with DMSO only.\nTransfer caps with debrided biofilm to a new tube containing 10 mL of 0.1% TSB+400 ppm concentration of CDA+5% DMSO.\nTransfer caps with debrided biofilm to a new tube containing 10 mL of 0.1% TSB+10 ppm concentration of cefazolin.\nTransfer caps with debrided biofilm to a new tube containing 10 mL of 0.1% TSB+10 ppm concentration of cefazolin+400 ppm CDA+5% DMSO. […]"}, "[7]": {"tested_on": "P. aeruginosa, E. coli, K pneumoniae, Proteus mirabilis, Streptococcus pyogenes, B. subtilis, S. aureus, and the yeast C. albicans", "conditions": "literature, Rabin et al. 2015; many species of bacteria and across kingdom; cited from earlier work"}, "[8]": {"tested_on": "mature biofilms of S. aureus (ATCC 25923) grown for 48 hours on K-wires", "experiment": "CDA + antibiotics on K-wires having mature biofilms (Example 2)", "type": "cell-based", "conditions": "400 ppm CDA adjuvant in combination with the named antibiotic; 48 h biofilm", "protocol": "as §1\nNew K-wires were roughened with #600 sandpaper (˜10× along the length) followed by rinsing with deionized water. The rinsed K-wires were then completely immersed in a 10% citric acid (w/v) bath at ˜49° C. for 20 minutes to passivate the surface of the stainless steel to prevent subsequent corrosion. After removal from the bath, the K-wires were then rinsed with deionized water. The K-wires were then washed and sterilized by autoclaving.\nK-wires were secured to tube caps and placed in tubes incubated with an initial inoculum concentration (10^5 CFU/mL) and grown for 24-48 hours. Media was changed roughly every 8 hours. After growth, the inoculated K-wires were ready for testing.\nAfter exposure time is completed, both the well samples and the debrided K-wires are treated, and remaining bacteria cells are plated and counted. For the media in the wells, samples are centrifuged for 10 minutes at 3000 rpm and the supernatant is removed. The cells are resuspended in 10 mL 1×PBS buffer. This washing step is repeated for a 2nd time and the cells resuspended again in a final volume of 1.5 mL neutralizing buffer, diluted and plated on Tryptic Soy Agar with Lectin (TSA-L) agar plates. For the K-wires, the caps securing the K-wires in the tubes are removed and transferred to tubes with 10 mL 1×PBS and the tubes are inverted. The caps with the K-wires are transferred again to another tube with PBS and the step repeated. After washing the K-wires 2 times, they are transferred to tubes with neutralizing buffer and vortexed followed by ultra-sonication for 10 minutes. The cells are then diluted and plated on TSA-L agar plates.\nFollowing growth, biofilms were washed and treated with the fatty acid and/or antimicrobials to determine dose-response and adjuvant effects. After this time, the wells of the samples were diluted and plated to determine dispersion levels compared to controls. The K-wires were washed, sonicated to remove any residual cells, and the samples were plated to determine CFU/mL."}, "[9]": {"tested_on": "Staphylococcus aureus", "conditions": "literature, Stenz et al.; by inhibiting bacterial adhesion; cited from earlier work"}, "[10]": {"tested_on": "Xanthomonas campestris", "conditions": "literature, Dow et al. 2003; cited from earlier work"}, "[11]": {"tested_on": "mature biofilms of S. aureus (ATCC 25923)", "experiment": "Systemic gentamicin testing on mature biofilms", "type": "cell-based", "conditions": "approximately 10 ppm (10 mcg/ml) gentamicin; data not shown", "protocol": "as §1, with “TSB. […]” for “TSB.”"}}, "data": [{"molecule": "CCCCCCC/C=C\\C(=O)O", "note": "[CDA, cis-2-decenoic acid]", "values": [{"measurement": "lowest concentration able to disperse biofilms", "setting": "[1]", "value": "about 2.5 nM"}, {"measurement": "concentration that inhibited biofilm formation", "setting": "[2]", "value": 125, "unit": "ppm"}, {"measurement": "concentration that inhibited the growth of MRSA", "setting": "[2]", "value": "≥ 500", "unit": "ppm"}, {"measurement": "dispersion of biofilm", "setting": "[3]", "value": "no observed dispersion"}, {"measurement": "log reduction in CFU", "setting": "[4]", "value": "greater than 4 log"}, {"measurement": "growth in the tube", "setting": "[5]; 400 ppm CDA, planktonic S. aureus", "value": "visible growth"}, {"measurement": "bacteriostatic or bactericidal", "setting": "[5]; 800 ppm CDA, 10 μL plated on TSA-L agar after 24 hours incubation", "value": "bacteriostatic, not bactericidal"}, {"measurement": "MIC", "setting": "[5]; Staphylococcus aureus, planktonic cells, qualitative, clear vs cloudy vials, read-out: minimum inhibitory concentration (MIC)", "value": 800, "unit": "µg/mL"}, {"measurement": "Avg. Log CFU, K-Wire Testing", "setting": "[6]; 400 ppm CDA + 5% DMSO", "value": 7.8, "unit": "Log CFU"}, {"measurement": "Avg. Log CFU, Well Testing", "setting": "[6]; 400 ppm CDA + 5% DMSO", "value": 5.6, "unit": "Log CFU"}, {"measurement": "Reduction (log CFU), K-Wire Testing", "setting": "[6]; 400 ppm CDA + 5% DMSO", "value": 1.6}, {"measurement": "Reduction (log CFU), Well Testing", "setting": "[6]; 400 ppm CDA + 5% DMSO", "value": 0.6}, {"measurement": "effect on established biofilms", "setting": "[7]", "value": "disperse established biofilms"}]}, {"molecule": "Cc1nnc(SCC2=C(C(=O)O)N3C(=O)[C@@H](NC(=O)Cn4cnnn4)[C@H]3SC2)s1", "note": "[Cef, cefazolin]", "values": [{"measurement": "log reduction of bacteria in the wells", "setting": "[8]", "value": 7.8, "unit": "log"}, {"measurement": "log reduction of bacteria on the medical device (K-wires)", "setting": "[8]", "value": 5.9, "unit": "log"}, {"measurement": "Avg. Log CFU, K-Wire Testing", "setting": "[6]; 10 ppm cefazolin", "value": 8.5, "unit": "Log CFU"}, {"measurement": "Avg. Log CFU, Well Testing", "setting": "[6]; 10 ppm cefazolin", "value": 5.4, "unit": "Log CFU"}, {"measurement": "Reduction (log CFU), K-Wire Testing", "setting": "[6]; 10 ppm cefazolin", "value": 0.9}, {"measurement": "Reduction (log CFU), Well Testing", "setting": "[6]; 10 ppm cefazolin", "value": 0.8}]}, {"molecule": "CCCCCCCC/C=C\\CCCCCCCC(=O)O", "note": "[Oleic acid, cis-9-octadecanoic acid]", "values": [{"measurement": "effect on biofilm formation", "setting": "[9]", "value": "repress biofilm formation"}]}, {"molecule": "CC(C)CCCCCCC/C=C\\C(=O)O", "note": "[cis-11-methyl-2-dodecenoic acid]", "values": [{"measurement": "effect on cell flocs", "setting": "[10]", "value": "disaggregate cell flocs"}]}, {"molecule": "CN[C@H](CC(C)C)C(=O)N[C@H]1C(=O)N[C@@H](CC(N)=O)C(=O)N[C@H]2C(=O)N[C@H]3C(=O)N[C@H](C(=O)N[C@H](C(=O)O)c4cc(O)cc(O)c4-c4cc3ccc4O)[C@H](O)c3ccc(c(Cl)c3)Oc3cc2cc(c3O[C@@H]2O[C@H](CO)[C@@H](O)[C@H](O)[C@H]2O[C@H]2C[C@](C)(N)[C@H](O)[C@H](C)O2)Oc2ccc(cc2Cl)[C@H]1O", "note": "[vancomycin]", "values": [{"measurement": "log reduction of bacteria in the wells", "setting": "[8]", "value": 5.3, "unit": "log"}, {"measurement": "log reduction of bacteria on the medical device (K-wires)", "setting": "[8]", "value": 4.7, "unit": "log"}]}, {"molecule": "gentamicin", "values": [{"measurement": "log reduction of bacteria in the wells", "setting": "[8]", "value": 6.3, "unit": "log"}, {"measurement": "log reduction of bacteria on the medical device (K-wires)", "setting": "[8]", "value": 4.9, "unit": "log"}, {"measurement": "response of mature biofilms to gentamicin doses", "setting": "[11]", "value": "resistant"}]}]}
